In ChEMBL document CHEMBL1201862, “PubChem BioAssay data set” (2004):
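The compound was tested at five concentrations on cells cultured in 96-well plates, with a 48-hour exposure period. The concentration for 50% growth inhibition is given as GI50.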 Calls of active or inactive are those of the source. Cut-off read from the data, not from the text of the source: active = GI50 up to about 1.1 µM and inactive = higher.

Tests used:
Test in all cases: NCI anticancer screen, dose series, 48 h
TK-10 = tested on: TK-10
K562 = tested on: K562
HT-29 = tested on: HT-29
NCI-H522 = tested on: NCI-H522
UACC-62 = tested on: UACC-62
SK-OV-3 = tested on: SK-OV-3
HCT-116 = tested on: HCT-116
A549 = tested on: A549
SF-268 = tested on: SF-268
COLO 205 = tested on: COLO 205
HOP-92 = tested on: HOP-92
786-0 = tested on: 786-0
HOP-62 = tested on: HOP-62
RPMI-8226 = tested on: RPMI-8226
SK-MEL-5 = tested on: SK-MEL-5
SF-539 = tested on: SF-539
LOX IMVI = tested on: LOX IMVI

Measured: GI50

O=C1OC(=O)C2C1C1C(c3ccccc3)=C(c3ccccc3)C2(O)C2C(=O)OC(=O)C12 (stereo not drawn)
inactive: TK-10 > 100 µM | K562 45.1 µM | HT-29 46.9 µM | NCI-H522 68.7 µM | UACC-62 > 100 µM | SK-OV-3 > 100 µM | HCT-116 54.8 µM | A549 > 100 µM | SF-268 > 100 µM | COLO 205 > 100 µM | HOP-92 65.6 µM | 786-0 92.3 µM | HOP-62 > 100 µM | RPMI-8226 38.6 µM

CCOC(=O)/C(C(=O)c1ccccc1)=C1/NCCN1C
inactive: SK-MEL-5 > 100 µM | K562 > 100 µM | HT-29 > 100 µM | SF-539 10 µM | NCI-H522 > 100 µM | UACC-62 > 100 µM | HCT-116 > 100 µM | A549 > 100 µM | SF-268 > 100 µM | COLO 205 > 100 µM | 786-0 > 100 µM | HOP-62 > 100 µM | RPMI-8226 > 100 µM | LOX IMVI > 100 µM

O=C1C[C@@H]2[C@@H](CCC23CCCC3)N1
inactive: SK-MEL-5 > 100 µM | TK-10 > 100 µM | K562 > 100 µM | HT-29 > 100 µM | SF-539 > 100 µM | NCI-H522 > 100 µM | UACC-62 > 100 µM | SK-OV-3 > 100 µM | HCT-116 > 100 µM | A549 > 100 µM | SF-268 > 100 µM | COLO 205 > 100 µM | 786-0 > 100 µM | HOP-62 > 100 µM | RPMI-8226 > 100 µM | LOX IMVI > 100 µM

CC1=C(c2ccccc2)C(c2ccccc2)=C(c2ccccc2)C2(c3ccccc3)C(=O)C(C)CN12 (stereo not drawn)
inactive: SK-MEL-5 59 µM | K562 > 10 µM | HT-29 42.3 µM | SF-539 31.5 µM | NCI-H522 15.7 µM | UACC-62 10.3 µM | SK-OV-3 > 100 µM | HCT-116 45.3 µM | A549 57.1 µM | SF-268 > 100 µM | 786-0 30.6 µM | HOP-62 > 100 µM | RPMI-8226 29.2 µM | LOX IMVI 58.7 µM

CCOc1ccc2c(c1)[n+]([O-])c(-c1ccc(Br)cc1)c(N)[n+]2[O-]
inactive: SK-MEL-5 20.8 µM | TK-10 > 100 µM | K562 75.5 µM | HT-29 64.4 µM | SF-539 34.4 µM | NCI-H522 16.6 µM | UACC-62 38.1 µM | SK-OV-3 > 100 µM | A549 59.6 µM | SF-268 42.8 µM | COLO 205 24.2 µM | 786-0 > 100 µM | HOP-62 67.6 µM | RPMI-8226 52.4 µM | LOX IMVI > 100 µM

CN(C)c1ccc(/C=N\N2C(=O)c3ccccc3C2=O)cc1
inactive: SK-MEL-5 > 100 µM | TK-10 > 100 µM | K562 > 100 µM | HT-29 > 100 µM | SF-539 > 100 µM | UACC-62 > 100 µM | HCT-116 > 100 µM | A549 > 100 µM | SF-268 > 100 µM | HOP-92 > 100 µM | 786-0 > 100 µM | HOP-62 > 100 µM | RPMI-8226 > 100 µM | LOX IMVI > 100 µM

C[C@]12Cc3conc3C(O)=C1CC[C@@H]1C2CC[C@@]2(C)C1CC[C@]2(C)O (stereo partly drawn)
inactive: SK-MEL-5 13.6 µM | TK-10 24 µM | K562 3.97 µM | HT-29 20.6 µM | SF-539 21.8 µM | UACC-62 10.4 µM | SK-OV-3 24.3 µM | HCT-116 16.3 µM | A549 28.1 µM | SF-268 28.8 µM | COLO 205 20.4 µM | HOP-92 32.4 µM | 786-0 22.7 µM | HOP-62 22.9 µM | RPMI-8226 2.87 µM | LOX IMVI 1.79 µM

COc1ccc2c(CCNC(=O)/C=C/c3ccccc3)c(C(C)=O)[nH]c2c1[N+](=O)[O-]
inactive: K562 4.49 µM | HT-29 4.99 µM | SF-539 9.86 µM | NCI-H522 3.35 µM | UACC-62 10.2 µM | HCT-116 13.7 µM | A549 8.05 µM | SF-268 4.26 µM | COLO 205 8.85 µM | 786-0 20.3 µM | HOP-62 18.8 µM | RPMI-8226 5.98 µM | LOX IMVI 5.64 µM

O=S1(=O)NN=C(NCc2ccc(Cl)cc2)c2ccccc21
inactive: SK-MEL-5 > 100 µM | K562 38 µM | HT-29 > 100 µM | SF-539 > 100 µM | UACC-62 83.6 µM | HCT-116 > 100 µM | A549 > 100 µM | SF-268 > 100 µM | COLO 205 > 100 µM | HOP-92 35.3 µM | 786-0 54.5 µM | RPMI-8226 30.6 µM | LOX IMVI 69 µM

Cc1[nH]c(O)nc1C(=O)c1ccc(-n2ccnc2)cc1
inactive: SK-MEL-5 > 100 µM | K562 > 100 µM | HT-29 > 100 µM | SF-539 > 100 µM | NCI-H522 > 100 µM | UACC-62 > 100 µM | SK-OV-3 > 100 µM | HCT-116 > 100 µM | A549 > 100 µM | SF-268 > 100 µM | 786-0 > 100 µM | HOP-62 > 100 µM | RPMI-8226 > 100 µM | LOX IMVI > 100 µM
